Test results reported in patent US20070154444A1, “Extracts from black yeast for whitening skin” (priority 2005, published 2007).

System: UV-B induced tan of the skin
Test: Whitening action: fading of UV-B induced tan on the backs of volunteer panelists, Minolta Chromameter reflectance
Format: in vivo, human
Conditions: FIG. 5; 1% extract or 2% kojic acid in Example 4 composition; 2 mg/cm^2 once a day; nine panelists
Description: A comparative study is done to determine the whitening efficacy of an Exophiala mansonii—derived enzyme extract in comparison to the efficacy of a known tyrosinase inhibitor, kojic acid. More specifically, the study was designed to study the lightening effect of these materials (reduction in tanning) using the fading of UV-B induced tan as a marker. Two samples are prepared. The first sample contains the composition described in Example 4. The second sample has the same composition as that described in Example 4 except that 2% kojic acid is substituted for the 1 % Exophiala mansonii enzyme extract. Nine volunteers participate in the study. […] Tanning is observed for six days after irradiation at which point color measurements are made using a Minolta Chromameter which measures the difference in reflectance of the skin, L. The change in the value of the difference in reflectance, ΔL*, is measured against a baseline skin color value of untreated irradiated skin measured on day 6. […] Chromameter readings are obtained on day 6, 8, 11, 13 and 15. The observed reflectance values for all the time points are recorded, and the area under the curve for each test site was calculated. The Whitening Factor is calculated as the area under the curve of the treated site subtracted from the untreated site, and is shown in FIG. 5.

**Q.** Which “Whitening Factor (area under the curve of the treated site subtracted from the untreated site)” value does the source give for O=c1cc(CO)occ1O [kojic acid] here?
**A.** Its value is 1.8.
